Experimental data: patent publication US20230013227A1, “ARYL-ANILINE AND HETEROARYL-ANILINE COMPOUNDS FOR TREATMENT OF BIRTHMARKS” (NFlection Therapeutics, Inc., priority 2018, published 2023)
Where two headings read alike, the source gives them in different places.

Tests used:
MEK1 = target: T1, MEK1 (Homo sapiens, UniProt Q02750); assay: MEK Inhibition Assay-1 (Example 2): 33P-ATP, P81 filter-binding kinase assay; conditions: read-out: Assay 1: biochemical MEK IC50
T1 construct: N-terminal His-tagged recombinant human full length protein; purchased Invitrogen PV3303; host or cells: insect cells
Method: The following procedure can be used to measure biochemical activity. MEK1 inhibitory activity of compounds were tested using the following procedure. […] Nat Biotechnoi 2011, 29(11), 1039-45.
• Reaction buffer: 20 mM Hepes (pH 7.5), 10 mM MgCl2, 1 mM EGTA, 0.02% Brij35, 0.02 mg/mL BSA, 0.1 mM Na3VO4, 2 mM DTT, 1% DMSO • Enzyme: MEK1, Invitrogen cat #PV3303 • N-terminal His-tagged recombinant human full length protein, expressed in insect cells. Activated in vitro by RAF1. MW=49.2 kDa, GenBank Accession No. NP_002746. • Substrate: 5 μM ERK2 (K52R), • Kinase-dead mutant, (GenBank Accession No. NM_0011949), aa2-358 with N-terminal His6 tag, MW=43.63 kDa, expressed in E. coli.
The substrate was prepared in freshly prepared Reaction Buffer. The kinase was delivered into the substrate solution and gently mixed. Test compounds were delivered in 100% DMSO into the kinase reaction mixture by Acoustic technology (Echo550; nanoliter range), and incubated for 20 min at room temperature. ^33P-ATP was delivered into the reaction mixture to initiate the reaction. The reaction mixture was incubated for 2 hours at room temperature. Kinase activity was detected by P81 filter-binding method.

HCT116 cells = assay: Cell-Based Assay-2 (Example 5): Cell Titer-Glo viability, HCT116 (Kras) GI50; conditions: Homo sapiens, HCT-116; Table 8, compounds of formula (II); 72 hours; read-out: Assay 3: HCT116 (Kras) GI50
Method: (§1) Alternatively, the following procedure can be used to measure cell-based activity. Test compounds were dissolved in DMSO in 10 mM stock. Cell Titer-Glo® 2.0 Luminescent cell viability assay reagent was purchased from Promega (Madison, Wis.). A375 and HCT116 cell lines were purchased from American Type Culture Collection (Manassas, Va.). For A375 cells, cell culture media was DMEM+10% FBS. For HCT116 cells, cell culture media was McCoy's 5A+10% FBS. All media were supplemented with 100 μg/mL of penicillin, and 100 μg/mL of streptomycin. Cultures were maintained at 37° C. in a humidified atmosphere of 5% CO2 and 95% air.
(§2) Test compounds were diluted in DMSO solution with 10-dose and 3-fold dilutions in a source plate starting at 10 mM. […] Luminescence was recorded by Envision 2104 Multilabel Reader (PerkinElmer, Santa Clara, Calif.). The number of viable cells in culture was determined based on quantitation of the ATP present in each culture well. […] Luminescence was recorded by Envision 2104 Multilabel Reader (PerkinElmer, Santa Clara, Calif.). The number of viable cells in culture was determined based on quantitation of the ATP present in each culture well. […] All parameters in the equation were calculated by GraphPad Prism 4 program. […] Accordingly, GI50 is the value of 10^X, where X was calculated by the Curve Fitting Equation when Y=50 using Excel.

A375 cells = assay: Cell-Based Assay-2 (Example 5): Cell Titer-Glo viability, A375 (BRAF) GI50; conditions: Homo sapiens, A-375; Table 8, compounds of formula (II); 72 hours
Method: as §1, §2

p-ERK = assay: Human birthmark explant protocol (Example 1): p-ERK in nevus sebaceous explants; format: cell-based; conditions: topical gel
From the text: Study Objectives: The primary objective was to assess the efficacy of a topically-formulated compound described herein in suppressing p-ERK, a downstream biomarker of RAS/MAPK signaling in epidermal nevus and nevus sebaceous. The secondary objectives was to assess permeability (where the compound was applied topically) in birthmark explants treated with a compound described herein.
Sample Collection and Eligibility: Discarded human birthmark (epidermal nevus and nevus sebaceous) samples were obtained from the Stanford Surgery Clinic, using an approved human subjects protocol (Stanford IRB #18325). Specimens were identified under the direction of the Principal Investigator and placed in cell proliferation media (DMEM/F12 containing penicillin/streptomycin (0.1%); fungizone (40 μg/mL); B27 (without vitamin A).
Samples were primary, untreated birthmarks of at least 6 mm in size; samples were excised by a shave, punch biopsy or elliptical excision. Specimens were identified under the direction of the Principal Investigator. Specimens were chopped into 2 mm fragments and placed in 24-well plates containing cell proliferation media (DMEM/F12 containing penicillin/streptomycin (0.1%); fungizone (40 μg/mL); B27 (without vitamin A) and submerged in media with drug. For topical gel application, samples were placed in 96 well plates with epidermal surface exposed to air.
For the data provided in FIGS. 3 and 4, a gel topical gel formulation of Trametinib, Compound No. 2.003, Compound No. 4.029, or the gel topical formulation of vehicle only were topically applied to the surface of a birthmark explant at 4 hours for analysis. The gel formulation was 1% hydroxypropyl cellulose in DMSO/PEG 400 1:1 (v/v) and the tested compound was 1% by weight in the gel formulation. Samples were harvested at 4 hours for analysis. Harvested tissue was bisected and with half snap frozen and half fixed in 10% formalin and paraffin embedded for further analysis.
For the data provided in FIG. 5, a gelled topical gel formulation of Compound 2.003 or the gel topical formulation of vehicle only were topically applied to the surface of a birthmark explant at 4 hours for analysis. The gel formulation was 1.5% hydroxypropyl cellulose in the base formulation and the tested compound was 0.01% by weight of the base formulation. The Compositions of the base formulation are listed below. Samples were harvested at 4 hours for analysis. Harvested tissue was bisected and with half snap frozen and half fixed in 10% formalin and paraffin embedded for further analysis.
For the data provided in FIG. 6, three gelled topical gel formulations of Compound 2.003 at different concentrations or the gel topical formulation of vehicle only were topically applied to the surface of a birthmark explant at 4 hours for analysis. […]

[1] = systemic exposure, background statement; cited from earlier work
MAP2K1 (MEK1) = target: T2, MAP2K1 (MEK1) (Homo sapiens, UniProt Q02750); assay: MEK Inhibition Assay-2 (Example 3): Z'-LYTE biochemical assay; conditions: Table 6; procedure of Example 3; read-out: IC50 against MEK1
T2 construct: purchased ThermoFisher
Method: MEK1 inhibitory activity of compounds were tested using the following procedure (protocol available at thermofisher.com/content/dam/LifeTech/migration/files/drug-discovery/pdfs.par.60256.file.dat/20130430%20ssbk%20customer%20protocol%20and%20assay%20conditions.pdf). The Z′-LYTE biochemical assay (ThermoFisher) employs a fluorescence-based, coupled-enzyme format and is based on the differential sensitivity of phosphorylated and non-phosphorylated peptides to proteolytic cleavage.
Test compounds in 100% DMSO were screened in 1% DMSO (final) in the well. For 10 point titrations, 3-fold serial dilutions are conducted from the starting concentration of 30 μM.
After the 1 hour incubation, 5 μL of a 1:1024 dilution of Development Reagent A (available from Invitrogen, catalog no. PV3295) was added.
ATP solutions were diluted to a 4× working concentration in Kinase Buffer (50 mM HEPES pH 7.5, 0.01% BRIJ-35, 10 mM MgCl2, 1 mM EGTA). ATP Km apparent was previously determined using a Z′-LYTE assay. The Development Reagent was diluted in Development Buffer (available from Invitrogen, catalog no. P3127).
Assay Protocol: 2.5 μL of 4× test compound or 100 nL of 100× Test Compound plus 2.4 μL Kinase Buffer, 5 μL of the 2× Peptide/Kinase Mixture, 2.5 μL of 4×ATP Solution were added to the plates and placed on a shake plate for 30-seconds. The kinase reaction was allowed to proceed for 60-minute at room temperature, before 5 μL of Development Reagent Solution was added, and the mixture agitated for 30-seconds on a shake plate. The mixture was incubated for 60-minute at room temperature. Fluorescence was measured using a plate reader and the data were analyzed.
This control yielded 100% cleaved peptide in the Development Reaction. The 100% Phosphorylation Control, which consisted of a synthetically phosphorylated peptide of the same sequence as the peptide substrate, was designed to allow for the calculation of percent phosphorylation. This control yielded a very low percentage of cleaved peptide in the Development Reaction. The 0% Phosphorylation and 100% Phosphorylation Controls allow for the calculation of the percent phosphorylation achieved in a specific reaction well.
The minimum emission ratio in a screen was established by the 0% Inhibition Control, which contained active kinase. This control was designed to produce a 10-50% phosphorylated peptide in the Kinase Reaction. Cascade assays may produce up to 70% phosphorylated peptide.
A known inhibitor control standard curve, 10 point titration, was run for each individual kinase on the same plate as the kinase to ensure the kinase was inhibited within an expected IC50 range previously determined.
The following controls are prepared for each concentration of Test Compound assayed. […] The expected value for a non-interfering compound should be 100%. Any value outside of 90% to 110% was flagged. […] The expected value for a non-fluorescence compound should be 0%. Any value >20% was flagged.
The data in Table A was calculated. XLfit from IDBS was used. The dose response curve was curve fit to model number 205 (sigmoidal dose-response model).

[2] = FIGS. 3 and 4, 1% by weight compound, 1% hydroxypropyl cellulose in DMSO/PEG 400 1:1, 4 hours

T1 sequence (Q02750 whole entry): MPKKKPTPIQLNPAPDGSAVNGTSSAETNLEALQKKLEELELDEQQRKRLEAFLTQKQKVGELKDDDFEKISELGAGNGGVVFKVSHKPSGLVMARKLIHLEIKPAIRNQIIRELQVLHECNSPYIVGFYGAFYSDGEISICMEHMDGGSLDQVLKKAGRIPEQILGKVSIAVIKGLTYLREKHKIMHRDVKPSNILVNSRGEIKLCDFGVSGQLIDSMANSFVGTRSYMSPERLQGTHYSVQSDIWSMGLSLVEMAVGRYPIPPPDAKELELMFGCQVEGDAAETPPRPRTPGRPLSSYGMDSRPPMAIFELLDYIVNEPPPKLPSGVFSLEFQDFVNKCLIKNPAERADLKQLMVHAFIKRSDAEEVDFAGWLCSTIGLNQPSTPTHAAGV
T2 sequence (Q02750 whole entry): as above

Compound: Cn1c(Nc2ccc(I)cc2F)c(C(=O)NOC[C@@H](O)CO)c2cccnc21 [Compound 2.006]
- IC50 (MEK1; Table 8, compounds of formula (II), tested by Example 2): 371 nM
- GI50 (HCT116 cells): 448 nM
- GI50 (A375 cells): 81 nM

Compound: Cn1c(Nc2ccc(I)cc2F)c(C(=O)NOCCO)c2cccnc21 [Compound 2.003]
- suppression of p-ERK in human nevus sebaceous explants (p-ERK; FIG. 5, 0.01% by weight compound, 1.5% hydroxypropyl cellulose in base formulation, 4 hours): suppression of p-ERK
- dose response in suppression of p-ERK in human nevus sebaceous explants (p-ERK; FIG. 6, 0.01%, 0.15% or 1.00% by weight compound, 4 hours): dose response
- suppression of p-ERK in human nevus sebaceous explants (p-ERK; [2]): suppression of p-ERK

Compound: O=C(NOC[C@H](O)CO)c1ccc(F)c(F)c1Nc1ccc(I)cc1F [PD0325901]
- side effects of a clinically-tested MEK inhibitor [1]: neurological side effects associated with ataxia, confusion, and syncope

Compound: O=C1CCCc2c1sc(Nc1ccc(I)cc1F)c2C(=O)NOCCO [Compound 4.029]
- suppression of p-ERK in human nevus sebaceous explants (p-ERK; [2]): suppression of p-ERK
- IC50 (MEK1; Table 10, compounds of formula (IV), Example 2): ≤ 500 nM
- IC50 (MAP2K1 (MEK1)): ≤ 150 nM
